Reference: ChEMBL document CHEMBL4507278 (2021)

Experiments:
[1] = biological target: Serine/threonine-protein kinase NIM1 (Homo sapiens) (UniProt Q8IY84); conditions: Compound concentration 1000.0 nM
[2] = biological target: Dual specificity mitogen-activated protein kinase kinase 1 (Homo sapiens) (UniProt Q02750); conditions: Compound concentration 1000.0 nM
[3] = biological target: Serine/threonine-protein kinase MRCK gamma (Homo sapiens) (UniProt Q6DT37); conditions: Compound concentration 1000.0 nM
[4] = biological target: Serine/threonine-protein kinase VRK2 (Homo sapiens) (UniProt Q86Y07); conditions: Compound concentration 1000.0 nM
[5] = biological target: 5-hydroxytryptamine receptor 1E (Homo sapiens) (UniProt P28566); conditions: Compound concentration 10.0 uM
[6] = biological target: cGMP-dependent protein kinase 1 (Homo sapiens) (UniProt Q13976); conditions: Compound concentration 1000.0 nM
[7] = biological target: Platelet-derived growth factor receptor beta (Homo sapiens) (UniProt P09619); conditions: Compound concentration 1000.0 nM
[8] = biological target: GABA-A receptor; anion channel (Rattus norvegicus) (UniProt O09028+P15431+P18506+P18508+P19969+P20236+P23574+P23576+P28471+P28473+P30191+P62813+P63079+P63138+Q91ZM7+Q9ES14); conditions: Compound concentration 10.0 uM
[9] = biological target: Death-associated protein kinase 1 (Homo sapiens) (UniProt P53355); conditions: Compound concentration 1000.0 nM
[10] = biological target: BMP-2-inducible protein kinase (Homo sapiens) (UniProt Q9NSY1); conditions: Compound concentration 1000.0 nM
[11] = biological target: SNF-related serine/threonine-protein kinase (Homo sapiens) (UniProt Q9NRH2); conditions: Compound concentration 1000.0 nM
[12] = biological target: Receptor-interacting serine/threonine-protein kinase 2 (Homo sapiens) (UniProt O43353); conditions: Compound concentration 1000.0 nM
[13] = biological target: Mitogen-activated protein kinase 12 (Homo sapiens) (UniProt P53778); conditions: Compound concentration 1000.0 nM
[14] = biological target: Serine/threonine-protein kinase D2 (Homo sapiens) (UniProt Q9BZL6); conditions: Compound concentration 1000.0 nM
[15] = biological target: Phosphatidylinositol 5-phosphate 4-kinase type-2 beta (Homo sapiens) (UniProt P78356); conditions: Compound concentration 1000.0 nM
[16] = biological target: Serine/threonine-protein kinase Nek7 (Homo sapiens) (UniProt Q8TDX7); conditions: Compound concentration 1000.0 nM
[17] = biological target: Ribosomal protein S6 kinase alpha-6 (Homo sapiens) (UniProt Q9UK32); conditions: Compound concentration 1000.0 nM
[18] = biological target: Bone morphogenetic protein receptor type-2 (Homo sapiens) (UniProt Q13873); conditions: Compound concentration 1000.0 nM
[19] = biological target: 3-phosphoinositide-dependent protein kinase 1 (Homo sapiens) (UniProt O15530); conditions: Compound concentration 1000.0 nM
[20] = biological target: Glycogen synthase kinase-3 alpha (Homo sapiens) (UniProt P49840); conditions: Compound concentration 1000.0 nM
[21] = biological target: G protein-coupled receptor kinase 3 (Homo sapiens) (UniProt P35626); conditions: Compound concentration 1000.0 nM
[22] = biological target: Serine/threonine-protein kinase SIK3 (Homo sapiens) (UniProt Q9Y2K2); conditions: Compound concentration 1000.0 nM
[23] = biological target: Inhibitor of nuclear factor kappa-B kinase subunit alpha (Homo sapiens) (UniProt O15111); conditions: Compound concentration 1000.0 nM
[24] = biological target: Casein kinase I isoform delta (Homo sapiens) (UniProt P48730); conditions: Compound concentration 1000.0 nM
[25] = test system: Tyrosine-protein kinase ABL1 (Homo sapiens), P00519 [Q252H]; conditions: Compound concentration 1000.0 nM
[26] = biological target: Hormonally up-regulated neu tumor-associated kinase (Homo sapiens) (UniProt P57058); conditions: Compound concentration 1000.0 nM
[27] = biological target: Serine/threonine-protein kinase LATS2 (Homo sapiens) (UniProt Q9NRM7); conditions: Compound concentration 1000.0 nM
[28] = biological target: 5-hydroxytryptamine receptor 2B (Homo sapiens) (UniProt P41595); conditions: Compound concentration 10.0 uM
[29] = biological target: Myosin light chain kinase, smooth muscle (Homo sapiens) (UniProt Q15746); conditions: Compound concentration 1000.0 nM
[30] = biological target: Mitogen-activated protein kinase 1 (Homo sapiens) (UniProt P28482); conditions: Compound concentration 1000.0 nM
[31] = biological target: Ribosomal protein S6 kinase alpha-5 (Homo sapiens) (UniProt O75582); conditions: Compound concentration 1000.0 nM
[32] = biological target: Receptor tyrosine-protein kinase erbB-4 (Homo sapiens) (UniProt Q15303); conditions: Compound concentration 1000.0 nM
[33] = biological target: Phosphatidylinositol 3-kinase catalytic subunit type 3 (Homo sapiens) (UniProt Q8NEB9); conditions: Compound concentration 1000.0 nM
[34] = test system: Mast/stem cell growth factor receptor Kit (Homo sapiens), P10721 [D816H]; conditions: Compound concentration 1000.0 nM
[35] = biological target: Ribosomal protein S6 kinase alpha-3 (Homo sapiens) (UniProt P51812); conditions: Compound concentration 1000.0 nM
[36] = biological target: Fibroblast growth factor receptor 4 (Homo sapiens) (UniProt P22455); conditions: Compound concentration 1000.0 nM
[37] = biological target: Serine/threonine-protein kinase Nek3 (Homo sapiens) (UniProt P51956); conditions: Compound concentration 1000.0 nM
[38] = biological target: BDNF/NT-3 growth factors receptor (Homo sapiens) (UniProt Q16620); conditions: Compound concentration 1000.0 nM
[39] = test system: Receptor-type tyrosine-protein kinase FLT3 (Homo sapiens), P36888 [UNDEFINED MUTATION]; conditions: Compound concentration 1000.0 nM
[40] = biological target: Fibroblast growth factor receptor 1 (Homo sapiens) (UniProt P11362); conditions: Compound concentration 1000.0 nM
[41] = biological target: Cyclin-dependent kinase 19 (Homo sapiens) (UniProt Q9BWU1); conditions: Compound concentration 1000.0 nM
[42] = biological target: Phosphatidylinositol 3-kinase C2 domain-containing subunit gamma (Homo sapiens) (UniProt O75747); conditions: Compound concentration 1000.0 nM
[43] = biological target: Mitogen-activated protein kinase kinase kinase 19 (Homo sapiens) (UniProt Q56UN5); conditions: Compound concentration 1000.0 nM
Mitogen-activated protein kinase kinase kinase 19 (Homo sapiens), sequence (Q56UN5 whole entry): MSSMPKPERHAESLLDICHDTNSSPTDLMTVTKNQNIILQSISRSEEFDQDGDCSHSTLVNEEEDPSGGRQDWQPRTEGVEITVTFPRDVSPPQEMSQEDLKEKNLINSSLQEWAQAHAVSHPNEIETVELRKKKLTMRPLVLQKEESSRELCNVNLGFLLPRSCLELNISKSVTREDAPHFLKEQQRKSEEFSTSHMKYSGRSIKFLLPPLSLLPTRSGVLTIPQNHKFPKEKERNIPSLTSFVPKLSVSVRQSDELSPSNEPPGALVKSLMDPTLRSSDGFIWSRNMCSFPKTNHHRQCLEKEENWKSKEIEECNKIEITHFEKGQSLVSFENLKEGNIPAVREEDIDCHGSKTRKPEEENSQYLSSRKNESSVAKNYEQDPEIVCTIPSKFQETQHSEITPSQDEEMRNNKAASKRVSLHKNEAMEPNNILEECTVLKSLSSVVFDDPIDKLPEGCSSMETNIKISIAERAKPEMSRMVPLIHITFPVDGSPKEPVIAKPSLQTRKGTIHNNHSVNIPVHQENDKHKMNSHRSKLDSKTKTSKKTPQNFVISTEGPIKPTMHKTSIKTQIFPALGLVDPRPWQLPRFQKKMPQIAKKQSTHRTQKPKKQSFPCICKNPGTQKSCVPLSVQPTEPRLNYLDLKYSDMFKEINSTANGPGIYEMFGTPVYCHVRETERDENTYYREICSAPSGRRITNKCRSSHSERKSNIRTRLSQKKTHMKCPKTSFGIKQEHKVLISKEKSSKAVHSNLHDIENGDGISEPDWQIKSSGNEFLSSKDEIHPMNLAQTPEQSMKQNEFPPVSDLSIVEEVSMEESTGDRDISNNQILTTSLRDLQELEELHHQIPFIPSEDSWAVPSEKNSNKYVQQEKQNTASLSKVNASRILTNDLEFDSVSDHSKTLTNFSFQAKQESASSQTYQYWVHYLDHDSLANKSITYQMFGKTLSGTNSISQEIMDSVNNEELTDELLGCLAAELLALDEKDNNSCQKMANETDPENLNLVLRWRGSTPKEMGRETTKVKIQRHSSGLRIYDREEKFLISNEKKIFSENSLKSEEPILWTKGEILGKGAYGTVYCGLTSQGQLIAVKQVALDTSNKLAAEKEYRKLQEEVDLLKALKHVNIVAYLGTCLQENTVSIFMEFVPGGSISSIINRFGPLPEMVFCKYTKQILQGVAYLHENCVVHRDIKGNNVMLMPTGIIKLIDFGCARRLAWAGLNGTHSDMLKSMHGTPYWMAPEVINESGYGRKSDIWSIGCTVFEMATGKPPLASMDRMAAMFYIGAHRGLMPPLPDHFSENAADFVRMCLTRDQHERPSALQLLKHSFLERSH

Serine/threonine-protein kinase LATS2 (Homo sapiens), sequence (Q9NRM7 whole entry): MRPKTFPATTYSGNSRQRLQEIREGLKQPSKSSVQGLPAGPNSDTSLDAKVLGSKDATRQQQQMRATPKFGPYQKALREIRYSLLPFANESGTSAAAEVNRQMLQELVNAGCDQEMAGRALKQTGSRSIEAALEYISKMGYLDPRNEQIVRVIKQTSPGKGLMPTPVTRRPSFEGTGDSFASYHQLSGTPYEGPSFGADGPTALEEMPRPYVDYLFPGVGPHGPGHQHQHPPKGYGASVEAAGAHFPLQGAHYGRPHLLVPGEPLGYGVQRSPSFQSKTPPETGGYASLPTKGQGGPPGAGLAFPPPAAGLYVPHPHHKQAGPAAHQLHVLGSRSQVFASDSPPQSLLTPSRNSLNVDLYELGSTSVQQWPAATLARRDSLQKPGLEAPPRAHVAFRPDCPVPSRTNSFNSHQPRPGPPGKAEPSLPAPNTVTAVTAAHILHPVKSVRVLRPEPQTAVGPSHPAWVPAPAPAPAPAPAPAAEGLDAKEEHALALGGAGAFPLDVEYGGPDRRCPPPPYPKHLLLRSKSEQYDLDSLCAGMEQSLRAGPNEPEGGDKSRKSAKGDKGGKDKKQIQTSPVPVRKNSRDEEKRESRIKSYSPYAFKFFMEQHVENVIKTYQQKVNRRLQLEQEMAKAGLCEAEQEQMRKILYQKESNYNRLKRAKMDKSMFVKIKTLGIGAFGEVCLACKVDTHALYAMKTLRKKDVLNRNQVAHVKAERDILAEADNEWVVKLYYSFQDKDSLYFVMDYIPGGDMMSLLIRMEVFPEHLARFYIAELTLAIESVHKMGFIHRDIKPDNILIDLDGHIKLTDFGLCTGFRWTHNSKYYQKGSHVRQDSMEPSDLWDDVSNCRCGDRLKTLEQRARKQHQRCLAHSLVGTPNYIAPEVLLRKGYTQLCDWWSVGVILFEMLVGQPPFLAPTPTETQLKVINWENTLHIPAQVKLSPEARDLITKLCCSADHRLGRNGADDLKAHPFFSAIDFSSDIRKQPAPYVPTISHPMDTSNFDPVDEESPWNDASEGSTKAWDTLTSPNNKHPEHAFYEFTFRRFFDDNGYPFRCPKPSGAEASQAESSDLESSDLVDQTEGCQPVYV
Dual specificity mitogen-activated protein kinase kinase 1 (Homo sapiens), sequence (Q02750 whole entry): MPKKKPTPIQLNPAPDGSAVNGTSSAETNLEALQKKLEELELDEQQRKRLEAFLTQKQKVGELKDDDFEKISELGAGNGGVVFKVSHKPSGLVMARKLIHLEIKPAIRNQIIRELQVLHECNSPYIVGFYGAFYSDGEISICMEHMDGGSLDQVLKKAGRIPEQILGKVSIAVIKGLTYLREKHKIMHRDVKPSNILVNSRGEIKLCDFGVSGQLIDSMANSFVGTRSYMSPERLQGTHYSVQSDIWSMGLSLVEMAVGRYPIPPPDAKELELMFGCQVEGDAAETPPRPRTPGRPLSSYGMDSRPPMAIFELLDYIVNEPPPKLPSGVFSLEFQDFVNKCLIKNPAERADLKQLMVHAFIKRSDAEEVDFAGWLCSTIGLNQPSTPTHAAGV
Phosphatidylinositol 3-kinase catalytic subunit type 3 (Homo sapiens), sequence (Q8NEB9 whole entry): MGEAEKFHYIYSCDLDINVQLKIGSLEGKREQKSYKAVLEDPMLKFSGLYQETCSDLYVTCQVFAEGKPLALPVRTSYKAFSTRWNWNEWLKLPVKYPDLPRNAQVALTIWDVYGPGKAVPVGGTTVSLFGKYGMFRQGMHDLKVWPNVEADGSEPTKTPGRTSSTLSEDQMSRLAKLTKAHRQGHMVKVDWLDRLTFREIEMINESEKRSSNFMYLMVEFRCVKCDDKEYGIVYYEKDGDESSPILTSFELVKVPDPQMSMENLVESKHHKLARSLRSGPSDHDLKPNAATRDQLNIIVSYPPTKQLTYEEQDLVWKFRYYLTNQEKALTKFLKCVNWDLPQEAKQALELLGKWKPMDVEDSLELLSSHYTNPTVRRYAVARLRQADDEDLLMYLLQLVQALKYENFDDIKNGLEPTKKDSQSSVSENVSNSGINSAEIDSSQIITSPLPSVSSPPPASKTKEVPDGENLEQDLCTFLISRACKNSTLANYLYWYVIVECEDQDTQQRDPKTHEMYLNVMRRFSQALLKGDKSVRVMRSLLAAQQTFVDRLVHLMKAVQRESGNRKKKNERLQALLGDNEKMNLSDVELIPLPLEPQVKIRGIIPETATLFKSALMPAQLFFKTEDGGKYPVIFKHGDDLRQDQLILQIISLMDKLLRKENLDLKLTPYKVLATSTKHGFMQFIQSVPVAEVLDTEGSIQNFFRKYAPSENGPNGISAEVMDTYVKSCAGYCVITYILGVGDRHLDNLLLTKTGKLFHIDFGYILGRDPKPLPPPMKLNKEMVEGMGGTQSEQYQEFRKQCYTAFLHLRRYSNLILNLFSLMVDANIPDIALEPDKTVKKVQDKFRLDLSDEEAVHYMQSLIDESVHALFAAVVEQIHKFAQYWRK
Serine/threonine-protein kinase SIK3 (Homo sapiens), sequence (Q9Y2K2 whole entry, looked up): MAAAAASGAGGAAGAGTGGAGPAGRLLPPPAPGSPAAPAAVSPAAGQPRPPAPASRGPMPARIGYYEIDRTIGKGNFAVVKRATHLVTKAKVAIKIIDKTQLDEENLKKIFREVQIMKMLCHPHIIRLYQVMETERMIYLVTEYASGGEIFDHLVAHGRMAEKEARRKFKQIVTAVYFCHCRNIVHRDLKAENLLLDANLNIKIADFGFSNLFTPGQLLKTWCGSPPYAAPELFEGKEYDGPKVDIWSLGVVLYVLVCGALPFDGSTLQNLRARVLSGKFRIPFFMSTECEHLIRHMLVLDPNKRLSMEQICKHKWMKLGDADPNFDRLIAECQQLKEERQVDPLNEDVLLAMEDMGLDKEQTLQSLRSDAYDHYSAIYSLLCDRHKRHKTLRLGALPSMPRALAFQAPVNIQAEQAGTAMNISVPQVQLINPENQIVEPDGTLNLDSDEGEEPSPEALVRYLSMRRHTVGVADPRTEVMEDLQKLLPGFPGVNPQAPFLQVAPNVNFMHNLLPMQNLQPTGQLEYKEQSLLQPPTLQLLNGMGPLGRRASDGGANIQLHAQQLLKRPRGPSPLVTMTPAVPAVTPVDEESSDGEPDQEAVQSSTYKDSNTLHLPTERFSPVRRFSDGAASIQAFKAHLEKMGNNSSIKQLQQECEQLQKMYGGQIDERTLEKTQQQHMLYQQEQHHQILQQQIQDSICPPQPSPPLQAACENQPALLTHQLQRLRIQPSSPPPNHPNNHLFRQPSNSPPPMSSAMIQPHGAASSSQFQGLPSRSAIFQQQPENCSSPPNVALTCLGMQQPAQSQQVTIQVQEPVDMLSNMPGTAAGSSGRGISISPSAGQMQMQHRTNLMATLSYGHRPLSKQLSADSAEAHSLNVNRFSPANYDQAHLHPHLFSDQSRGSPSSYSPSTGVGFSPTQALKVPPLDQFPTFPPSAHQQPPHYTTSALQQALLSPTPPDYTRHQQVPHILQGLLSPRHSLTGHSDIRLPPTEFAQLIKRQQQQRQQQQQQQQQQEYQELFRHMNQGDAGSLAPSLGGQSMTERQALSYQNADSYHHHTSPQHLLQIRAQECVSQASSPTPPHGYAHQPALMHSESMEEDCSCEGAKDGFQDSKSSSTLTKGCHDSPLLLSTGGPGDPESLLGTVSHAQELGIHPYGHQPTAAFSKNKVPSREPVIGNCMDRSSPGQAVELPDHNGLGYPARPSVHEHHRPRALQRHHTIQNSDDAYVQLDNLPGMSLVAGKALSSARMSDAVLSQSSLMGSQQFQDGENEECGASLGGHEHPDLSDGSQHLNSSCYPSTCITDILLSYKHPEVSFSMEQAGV

SMILES: CS(=O)(=O)NCC[C@H](NC(=O)c1cncc2c1cnn2-c1ccc(F)cc1)c1ccnc(S(C)(=O)=O)c1 [BI 9307]
- residual activity [1]: 100%
- residual activity [2]: 100%
- residual activity [3]: 100%
- residual activity [4]: 100%
- inhibition [5]: 8.79%
- residual activity [6]: 96%
- residual activity [7]: 100%
- inhibition [8]: 23.5%
- residual activity [9]: 100%
- residual activity [10]: 92%
- residual activity [11]: 100%
- residual activity [12]: 100%
- residual activity [13]: 100%
- residual activity [14]: 94%
- residual activity [15]: 100%
- residual activity [16]: 90%
- residual activity [17]: 100%
- residual activity [18]: 100%
- residual activity [19]: 100%
- residual activity [20]: 100%
- residual activity [21]: 100%
- residual activity [22]: 98%
- residual activity [23]: 100%
- residual activity [24]: 100%
- residual activity [25]: 100%
- residual activity [26]: 100%
- residual activity [27]: 97%
- inhibition [28]: -5.9%
- residual activity [29]: 100%
- residual activity [30]: 100%
- residual activity [31]: 88%
- residual activity [32]: 95%
- residual activity [33]: 100%
- residual activity [34]: 100%
- residual activity [35]: 100%
- residual activity [36]: 100%
- residual activity [37]: 86%
- residual activity [38]: 100%
- residual activity [39]: 99%
- residual activity [40]: 87%
- residual activity [41]: 80%
- residual activity [42]: 86%
- residual activity [43]: 98%

SMILES: CS(=O)(=O)c1cc(C2(NC(=O)c3cncc4c3cnn4-c3ccc(F)cc3)CC2)ccn1 [BI 639667]
- residual activity [1]: 56%
- residual activity [2]: 81%
- residual activity [3]: 100%
- residual activity [4]: 100%
- inhibition [5]: 14.8%
- residual activity [6]: 100%
- residual activity [7]: 93%
- inhibition [8]: 6.63%
- residual activity [9]: 83%
- residual activity [10]: 89%
- residual activity [11]: 88%
- residual activity [12]: 53%
- residual activity [13]: 100%
- residual activity [14]: 97%
- residual activity [15]: 100%
- residual activity [16]: 100%
- residual activity [17]: 64%
- residual activity [18]: 99%
- residual activity [19]: 100%
- residual activity [20]: 70%
- residual activity [21]: 100%
- residual activity [22]: 81%
- residual activity [23]: 100%
- residual activity [24]: 99%
- residual activity [25]: 100%
- residual activity [26]: 100%
- residual activity [27]: 100%
- inhibition [28]: 22.1%
- residual activity [29]: 94%
- residual activity [30]: 94%
- residual activity [31]: 100%
- residual activity [32]: 100%
- residual activity [33]: 86%
- residual activity [34]: 49%
- residual activity [35]: 99%
- residual activity [36]: 74%
- residual activity [37]: 100%
- residual activity [38]: 91%
- residual activity [39]: 58%
- residual activity [40]: 95%
- residual activity [41]: 91%
- residual activity [42]: 93%
- residual activity [43]: 91%
